In patent US4374139A, “Levorotatory N-substituted acylmorphinans useful as analgesic agents” (priority 1981, dated 1983):
Structures can show the parent of a compound that is named as a salt. Where two headings read alike, the source gives them in different places.

Key:
[1] = test system: mice exposed to radiant heat stimulus on the tail; assay: animal or person; format: in vivo, male mice (Charles River, CF-1/CD)
Source text: (§1) The ED50 was the dose which reduced the total number of writhes by 50%. […] A modification of the tail flick test described by Dewey and Harris (in: S. Ehrenpreis and A. Neidle (eds.), Methods in Narcotics Research, Marcel Dekker, Inc., New York, 1975, pp. 101-108) was used to measure the tail flick reaction times following oral or subcutaneous administration of the compounds of formula I of the invention.
More specifically, groups of 10 male mice (Charles River, CF-1/CD, 18-22 gm) were placed in individual stainless steel, ventilated, cylindrical restrainers with their tails protruding through a hole at one end. The restraining tubes were positioned on a sliding platform so that each mouse, in turn, could be exposed to a high intensity lamp. The rays from the lamp were focused by means of a parabolic reflector directly on the tail. The intensity of the heat was adjusted by means of a rheostat so that untreated mice would responsed in approximately 2 to 4 seconds. When the endpoint response occurred (a sudden twitch of the tail, removing it from the path of the radiant heat stimulus), the experimenter stopped a reaction time clock. In the event that no response occurred within 10 seconds (the cutoff time), the tester terminated the trial and assigned a latency score of 10 seconds for that trial. The reaction time of each mouse was determined before and again 30,60,90 and 120 minutes after treatment.
Each group of 10 mice was treated orally or subcutaneously with vehicle (normal saline) or with logarithmically spaced doses of the test compounds. For most compounds, four dose levels, which were studied in a single test session, were sufficient to provide a satisfactory estimate of the ED50. Occasionally, five or six does levels were needed. […] Because of this, some vehicle control groups and dosed groups consisted of a total of 20 mice, rather than 10.
(§2) Doses were calculated as the salts of all the compounds. Injection volume was 0.1 ml/10 g body weight. For each test compound, ED 50 values were calculated separately for each test. Log dose regression analysis and Fieller's Theorem were used to compute the ED 50 and its 95 percent confidence limits. The analysis was performed on the tail flick latency scores of all mice that were treated with a test compound. For any given test, the average tail flick latency score of the vehicle control group was calculated and a latency value, Z, was derived from this, as follows: [formula] where the cutoff time was 10 seconds. […] The value of Z was entered as an interpolate into the regression analysis so that an ED50, defined as the dose that increased tail flick latencies by 50 percent of the maximum possible response, could be computed.

[2] = test system: mice exposed to intra-abdominally induced chemical pain; assay: animal or person; format: in vivo, mouse
Protocol: as §1, §2

[3] = mouse, oral, dose that increased tail flick latencies by 50 percent of the maximum possible response, cutoff 10 seconds, doses as the salts, read-out: ED50 Tail Flick Oral
[4] = sc, mouse, subcutaneous, dose that increased tail flick latencies by 50 percent of the maximum possible response, cutoff 10 seconds, doses as the salts, read-out: ED50 Tail Flick Subcu.
[5] = mouse, oral, dose which reduced the total number of writhes by 50%, doses as the salts, read-out: ED50 Writhing Oral
[6] = sc, mouse, subcutaneous, dose which reduced the total number of writhes by 50%, doses as the salts, read-out: ED50 Writhing Subcu.
[7] = Mus musculus, po, read-out: ED50 Tail Flick Oral
[8] = Mus musculus, sc, read-out: ED50 Tail Flick Subcu.
[9] = Mus musculus, po, read-out: ED50 Writhing Oral
[10] = Mus musculus, sc, read-out: ED50 Writhing Subcu.

| SMILES | ED50 [1, 3] | ED50 [1, 4] | ED50 [2, 5] | ED50 [2, 6] | ED50 [1, 7] | ED50 [1, 8] | ED50 [2, 9] | ED50 [2, 10] |
| --- | --- | --- | --- | --- | --- | --- | --- | --- |
| CCC(=O)c1ccc2c(c1)[C@@]13CCCC[C@H]1[C@@H](C2)N(C)CC3.Cl [(-)-1-(17-methylmorphinan-3-yl)-1-propanone hydrochloride] | 12 mg/kg | 2.3 mg/kg | 1.9 mg/kg | 0.22 mg/kg | – | – | – | – |
| CC(=O)c1ccc2c(c1)[C@@]13CCCC[C@H]1[C@@H](C2)N(CC=C(C)C)CC3.O.O=C(O)C(O)C(O)C(=O)O [(-)-1-[17-(3-methyl-2-butenyl)morphinan-3-yl]ethanone d-tartrate monohydrate] | – | – | – | – | 115 mg/kg | ~50 mg/kg | 43 mg/kg | 5.9 mg/kg |
| CC(=O)c1ccc2c(c1)[C@@]13CCCC[C@H]1[C@@H](C2)N(CCc1ccccc1)CC3 [(-)-1-[N-(2-phenethyl)morphinan-3-yl]ethanone d-tartrate hemihydrate] | 10.4 mg/kg | 1.8 mg/kg | 1.2 mg/kg | 0.39 mg/kg | – | – | – | – |
| CC(=O)c1ccc2c(c1)[C@@]13CCCC[C@H]1[C@@H](C2)N(CC1CC1)CC3.Cl [(-)-1-[N-(cyclopropylmethyl)morphinan-3-yl]-ethanone hydrochloride] | 1.5 mg/kg | 2.3 mg/kg | 2.1 mg/kg | 0.18 mg/kg | – | – | – | – |
| CC(=O)c1ccc2c(c1)C[C@@H]1[C@@H]3CCCC[C@]23CCN1C.O=C(O)C(O)C(O)C(=O)O [(-)-2-acetyl-N-methylmorphinan d-tartrate] | – | – | – | – | 75 mg/kg | > 50 mg/kg | 22.3 mg/kg | 4 mg/kg |
| CC(=O)c1ccc2c(c1)[C@@]13CCCC[C@H]1[C@@H](C2)N(CCC#N)CC3.Cl [(-)-3-acetyl-17-morphinanpropanenitrile hydrochloride] | 51.2 mg/kg | 6.1 mg/kg | 4.4 mg/kg | 0.57 mg/kg | – | – | – | – |
| CC(=O)c1ccc2c(c1)[C@@]13CCCC[C@H]1[C@@H](C2)N(CC1CCC1)CC3.Cl [(-)-3-acetyl-N-cyclobutylmethylmorphinan hydrochloride] | 27.6 mg/kg | 4.9 mg/kg | 5.7 mg/kg | 1.2 mg/kg | – | – | – | – |
| CC(=O)c1ccc2c(c1)[C@@]13CCCC[C@H]1[C@@H](C2)N(C)CC3.O=C(O)C(O)C(O)C(=O)O [(-)-3-acetyl-N-methylmorphinan d-tartrate] | – | – | – | – | 2 mg/kg | 3.9 mg/kg | 0.5 mg/kg | 0.08 mg/kg |
| CN1CC[C@]23CCCC[C@H]2[C@H]1Cc1ccc(C(=O)c2ccccc2)cc13.O=C(O)C(O)C(O)C(=O)O [(-)-(17-methylmorphinan-3-yl)phenylmethanone d-tartrate] | – | – | – | – | > 200 mg/kg | > 50 mg/kg | 35.5 mg/kg | 22.2 mg/kg |
| CN1CC[C@]23CCCC[C@H]2[C@H]1Cc1ccc(C(C)(C)O)cc13 [(-)-α,α-17-trimethylmorphinan-3-methanol hydrochloride] | 12 mg/kg | 4.3 mg/kg | 2.5 mg/kg | 1.05 mg/kg | – | – | – | – |
| CC(O)c1ccc2c(c1)[C@@]13CCCC[C@H]1[C@@H](C2)N(C)CC3 (stereo partly drawn) [(-)-α-17-dimethylmorphinan-3-methanol hydrochloride] | 1.1 mg/kg | 1.3 mg/kg | 0.36 mg/kg | 0.24 mg/kg | – | – | – | – |
